# Results taken from ChEMBL document CHEMBL1201862, “PubChem BioAssay data set” (2004).
# The source made the active and inactive calls.
# What was measured:
# cells [1] = type: functional, cell-based
# cells [2] = type: functional, cell-based; remark: listed apart in the source
# [3] = biological target: T1, Replicative DNA helicase DnaB (Mycobacterium tuberculosis, UniProt P9WMR3); assay: DnaB intein splicing inhibitors, dose response, biochemical, cell-free fluorescence (AID 449749); type: functional
# T1 sequence (P9WMR3 whole entry): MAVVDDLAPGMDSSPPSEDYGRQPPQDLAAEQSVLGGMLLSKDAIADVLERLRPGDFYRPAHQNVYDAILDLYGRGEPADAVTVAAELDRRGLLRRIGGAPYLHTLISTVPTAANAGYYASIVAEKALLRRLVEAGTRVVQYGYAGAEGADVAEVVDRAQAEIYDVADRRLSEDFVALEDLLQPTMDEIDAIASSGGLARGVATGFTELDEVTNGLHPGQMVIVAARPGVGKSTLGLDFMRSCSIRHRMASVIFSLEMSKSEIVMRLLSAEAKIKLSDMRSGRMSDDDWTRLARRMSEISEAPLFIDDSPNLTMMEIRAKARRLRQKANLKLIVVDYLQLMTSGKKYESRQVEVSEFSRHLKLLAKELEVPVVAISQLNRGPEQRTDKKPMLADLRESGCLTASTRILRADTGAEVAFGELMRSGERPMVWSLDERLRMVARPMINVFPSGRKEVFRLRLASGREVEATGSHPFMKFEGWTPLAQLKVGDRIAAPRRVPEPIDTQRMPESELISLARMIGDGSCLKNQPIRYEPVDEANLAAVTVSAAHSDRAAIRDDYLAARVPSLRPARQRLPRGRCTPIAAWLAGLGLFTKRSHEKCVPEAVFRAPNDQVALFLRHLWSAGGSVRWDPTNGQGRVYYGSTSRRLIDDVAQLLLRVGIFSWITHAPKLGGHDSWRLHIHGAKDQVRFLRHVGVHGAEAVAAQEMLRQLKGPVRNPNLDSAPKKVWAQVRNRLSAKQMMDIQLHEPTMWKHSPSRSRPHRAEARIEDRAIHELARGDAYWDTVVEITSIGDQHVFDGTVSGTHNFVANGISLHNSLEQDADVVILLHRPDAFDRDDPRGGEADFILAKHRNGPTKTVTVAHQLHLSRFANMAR
# Protein RecA = biological target: T2, Protein RecA (Mycobacterium tuberculosis, UniProt P9WHJ3); assay: Fluorescence Cell-Free Homogeneous Dose Retest to Identify Inhibitors of RecA-Intein Splicing Activity. [Related pubchem assays (depositor defined):AID2097, AID2223, AID489010, AID492950]; type: functional
# T2 sequence (P9WHJ3 whole entry): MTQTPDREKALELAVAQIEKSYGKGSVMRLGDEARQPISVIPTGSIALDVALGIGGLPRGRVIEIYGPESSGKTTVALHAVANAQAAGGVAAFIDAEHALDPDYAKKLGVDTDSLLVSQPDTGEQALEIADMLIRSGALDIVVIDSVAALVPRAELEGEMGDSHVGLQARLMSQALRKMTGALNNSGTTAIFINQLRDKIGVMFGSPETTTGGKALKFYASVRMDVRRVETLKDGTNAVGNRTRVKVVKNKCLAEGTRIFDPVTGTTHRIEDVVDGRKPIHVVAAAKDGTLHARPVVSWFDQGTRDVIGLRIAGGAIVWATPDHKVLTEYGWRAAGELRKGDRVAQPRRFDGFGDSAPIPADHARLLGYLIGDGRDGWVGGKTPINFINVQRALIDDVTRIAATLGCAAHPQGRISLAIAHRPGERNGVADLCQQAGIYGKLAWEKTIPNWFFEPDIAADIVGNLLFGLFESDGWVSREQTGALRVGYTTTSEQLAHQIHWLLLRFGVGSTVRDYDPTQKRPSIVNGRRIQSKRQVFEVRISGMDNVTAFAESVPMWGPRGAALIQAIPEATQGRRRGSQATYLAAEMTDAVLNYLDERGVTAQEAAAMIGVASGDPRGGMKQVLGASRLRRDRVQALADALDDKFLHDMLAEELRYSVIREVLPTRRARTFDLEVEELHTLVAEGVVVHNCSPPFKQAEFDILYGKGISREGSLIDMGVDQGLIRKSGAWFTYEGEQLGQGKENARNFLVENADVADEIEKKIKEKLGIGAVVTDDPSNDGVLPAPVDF
# Cytochrome P450 2C19 = Cytochrome P450 2C19 (Homo sapiens, UniProt P33261); assay: Cytochrome panel assay with activity outcomes. Panel member name: p450-cyp2c19 Compounds with AC50 equal or less than 10 uM are considered active; type: functional; details: read-out: AC50
# Cytochrome P450 2C19, sequence (P33261 whole entry): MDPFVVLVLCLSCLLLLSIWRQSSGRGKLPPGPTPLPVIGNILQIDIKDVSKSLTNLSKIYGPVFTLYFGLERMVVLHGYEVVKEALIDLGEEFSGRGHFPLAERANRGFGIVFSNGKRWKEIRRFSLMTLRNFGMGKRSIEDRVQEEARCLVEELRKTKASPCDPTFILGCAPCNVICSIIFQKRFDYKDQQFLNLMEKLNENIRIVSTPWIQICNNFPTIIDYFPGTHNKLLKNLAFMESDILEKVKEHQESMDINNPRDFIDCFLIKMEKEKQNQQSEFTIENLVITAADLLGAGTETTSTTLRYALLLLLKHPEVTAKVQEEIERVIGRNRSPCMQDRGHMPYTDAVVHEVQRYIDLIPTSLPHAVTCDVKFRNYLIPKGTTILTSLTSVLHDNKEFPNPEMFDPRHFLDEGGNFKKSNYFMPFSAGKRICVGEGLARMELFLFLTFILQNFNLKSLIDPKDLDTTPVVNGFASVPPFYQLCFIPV
# Cytochrome P450 2D6 = Cytochrome P450 2D6 (Homo sapiens, UniProt P10635);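 also: CYP2D6 member of a cytochrome P450 panel assay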
# Cytochrome P450 2D6, sequence (P10635 whole entry): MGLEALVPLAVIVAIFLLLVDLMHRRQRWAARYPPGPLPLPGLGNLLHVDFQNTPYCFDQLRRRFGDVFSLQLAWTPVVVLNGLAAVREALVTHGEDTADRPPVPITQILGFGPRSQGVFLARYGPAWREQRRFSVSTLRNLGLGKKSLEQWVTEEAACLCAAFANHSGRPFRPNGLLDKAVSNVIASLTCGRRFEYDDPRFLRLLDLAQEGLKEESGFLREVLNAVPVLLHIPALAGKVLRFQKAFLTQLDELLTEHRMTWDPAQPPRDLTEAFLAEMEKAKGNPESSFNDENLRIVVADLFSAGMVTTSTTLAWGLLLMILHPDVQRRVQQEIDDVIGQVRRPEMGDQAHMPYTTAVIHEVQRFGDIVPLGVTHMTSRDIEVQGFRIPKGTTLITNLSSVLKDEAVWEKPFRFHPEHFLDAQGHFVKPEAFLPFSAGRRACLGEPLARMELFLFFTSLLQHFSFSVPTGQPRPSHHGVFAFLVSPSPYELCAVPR
# Cytochrome P450 1A2 = biological target: T3, Cytochrome P450 1A2 (Homo sapiens, UniProt P05177);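 also: PubChem cytochrome P450 panel assay, CYP1A2 panel member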
# T3 sequence (P05177 whole entry): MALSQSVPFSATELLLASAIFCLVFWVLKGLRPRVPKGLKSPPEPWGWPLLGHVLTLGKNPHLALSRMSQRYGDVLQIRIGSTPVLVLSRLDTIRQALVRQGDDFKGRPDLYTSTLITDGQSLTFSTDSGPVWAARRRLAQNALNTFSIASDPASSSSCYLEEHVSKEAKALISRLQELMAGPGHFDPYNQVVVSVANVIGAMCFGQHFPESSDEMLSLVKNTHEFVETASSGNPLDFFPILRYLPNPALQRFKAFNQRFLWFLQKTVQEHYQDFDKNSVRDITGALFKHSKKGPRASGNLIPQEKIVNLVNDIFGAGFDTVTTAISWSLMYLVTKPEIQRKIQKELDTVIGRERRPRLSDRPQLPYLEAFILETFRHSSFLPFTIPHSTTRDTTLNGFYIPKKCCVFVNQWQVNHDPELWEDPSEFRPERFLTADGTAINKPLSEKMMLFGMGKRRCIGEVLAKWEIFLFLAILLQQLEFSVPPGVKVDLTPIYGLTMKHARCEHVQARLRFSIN
# P388/ADR = assay: cells; type: functional; details: Mus musculus
# SN12K1 = assay: cells; type: functional; details: Homo sapiens
# P388 = assay: cells; type: functional; details: Mus musculus
# Cytochrome P450 2C9 = Cytochrome P450 2C9 (Homo sapiens, UniProt P11712)
# Cytochrome P450 2C9, sequence (P11712 whole entry): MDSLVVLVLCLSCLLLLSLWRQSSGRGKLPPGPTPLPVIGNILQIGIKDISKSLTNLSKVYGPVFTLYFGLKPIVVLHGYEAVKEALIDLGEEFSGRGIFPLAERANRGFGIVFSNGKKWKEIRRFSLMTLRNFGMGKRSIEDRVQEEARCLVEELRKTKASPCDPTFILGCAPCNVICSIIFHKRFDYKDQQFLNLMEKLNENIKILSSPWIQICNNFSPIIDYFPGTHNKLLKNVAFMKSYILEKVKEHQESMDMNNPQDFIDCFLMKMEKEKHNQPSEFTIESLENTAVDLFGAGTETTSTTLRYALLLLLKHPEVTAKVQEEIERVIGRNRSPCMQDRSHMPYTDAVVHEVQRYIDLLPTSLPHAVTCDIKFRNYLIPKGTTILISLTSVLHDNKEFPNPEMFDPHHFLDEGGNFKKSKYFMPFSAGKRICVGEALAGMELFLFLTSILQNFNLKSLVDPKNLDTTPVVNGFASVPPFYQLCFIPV
# Cytochrome P450 3A4 = Cytochrome P450 3A4 (Homo sapiens, UniProt P08684);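 also: CYP3A4 tested as one member of a cytochrome P450 panel screen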
# Cytochrome P450 3A4, sequence (P08684 whole entry): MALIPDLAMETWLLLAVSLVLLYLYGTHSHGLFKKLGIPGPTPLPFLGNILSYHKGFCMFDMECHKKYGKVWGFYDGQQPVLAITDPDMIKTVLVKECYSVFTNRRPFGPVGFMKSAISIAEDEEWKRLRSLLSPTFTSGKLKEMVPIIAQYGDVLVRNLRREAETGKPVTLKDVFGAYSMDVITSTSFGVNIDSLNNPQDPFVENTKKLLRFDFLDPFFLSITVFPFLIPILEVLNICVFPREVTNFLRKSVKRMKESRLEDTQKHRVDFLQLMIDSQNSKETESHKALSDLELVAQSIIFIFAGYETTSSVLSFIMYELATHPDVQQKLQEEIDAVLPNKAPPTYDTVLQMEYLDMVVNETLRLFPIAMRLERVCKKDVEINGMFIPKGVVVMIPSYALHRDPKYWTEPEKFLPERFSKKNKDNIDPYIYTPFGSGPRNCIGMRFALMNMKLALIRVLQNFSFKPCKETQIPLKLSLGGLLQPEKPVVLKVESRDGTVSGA
# [4] = viability of uninfected HEp-2 cells – cell-based, HTS, cytotoxicity control for RSV inhibitor project, dose response (AID 2410); type: functional; details: human respiratory syncytial virus
# [5] = viability of PTEN-deleted HCT116 cells – cell-based, HCT116 PTEN knockout, dose response (AID 1047); type: functional;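 also: HCT116 colon tumor cells with PTEN knocked out; cells exposed to compound for 60 hours before readout; potency for loss of cell viability measured by luminescence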
# [6] = P. falciparum Dd2 growth inhibitors, dose response, SYBR Green, cherry-picked samples (AID 1159567); type: functional, cell-based
# [7] = Luminescence Cell-Based Dose Response HTS to Identify Activators of Luciferase Translation or Activity in H4 […] Cells. [Related pubchem assays: 1829 (Project Summary), 1814 (Primary HTS)]; type: functional
structure (smiles),measurement,setting,value
Clc1c(CSc2nc3ccccc3o2)nc2sccn12,EC50,cells [1],> 350 µM (not active)
same,EC50,cells [2],21 µM (active)
CCOC(=O)N1CCC2(CC1)C(C#N)=C(N)Oc1[nH]nc(C)c12,AC50,[3],8.2 µM (active)
same,EC50,Protein RecA,1.43 µM (active)
COc1ccc(F)cc1CSc1nnnn1-c1ccc(O)cc1,EC50,cells [1],> 350 µM (not active)
same,EC50,cells [2],> 350 µM (not active)
COc1cccc(Cn2c(=O)c(-c3ccccc3)nc3cnc(N4CCNCC4)nc32)c1,AC50,Cytochrome P450 2C19,39.8 µM (inconclusive)
same,AC50,Cytochrome P450 2D6,10 µM (inconclusive)
same,AC50,Cytochrome P450 1A2,3.16 µM (inconclusive)
CCCCCC/C=C1\CCC(CN(C)C)C1=O (centres undefined),GI50,P388/ADR,0.673 µM (active)
same,GI50,SN12K1,2.17 µM (inactive)
same,GI50,P388,1.08 µM (active)
Nc1nccc2c1ncn2C1C=C(CO)C(O)C1O (centres undefined),GI50,P388/ADR,0.051 µM (active)
same,GI50,SN12K1,0.811 µM (active)
same,GI50,P388,0.0982 µM (active)
Cc1ccc(C(=O)C2C(=O)c3ccccc3C2=O)cc1,AC50,Cytochrome P450 2C19,22.4 µM (inconclusive)
same,AC50,Cytochrome P450 1A2,25.1 µM (inconclusive)
COc1cc([C@@H]2c3cc4c(c(O)c3C[C@H]3COC(=O)[C@@H]32)OCO4)cc(OC)c1O,GI50,P388/ADR,0.02 µM (active)
same,GI50,SN12K1,0.0208 µM (active)
same,GI50,P388,0.0261 µM (active)
COc1ccc(CC(NC(C)=O)C(=O)NC2CCN(C(=O)Nc3ccc(Cl)cc3)CC2)cc1OC (centres undefined),EC50,cells [1],> 350 µM (not active)
same,EC50,cells [2],> 350 µM (not active)
same,AC50,Cytochrome P450 2C9,12.6 µM (inconclusive)
CCN(CCN(C)C)C(=O)C1CCN(S(=O)(=O)c2c(C)noc2/C=C/c2ccccc2F)CC1,EC50,cells [1],> 350 µM (not active)
same,EC50,cells [2],21.2 µM (active)
CC(=O)Nc1cccc(OC(=O)COc2ccc(Br)cc2)c1,AC50,[3],11 µM (active)
same,EC50,Protein RecA,20.6 µM (active)
O=C1C2=C(C3=NCCc4c[nH]c1c43)c1c(cc(Br)c(O)c1Br)CCN2,GI50,P388/ADR,10.2 µM (inactive)
same,GI50,SN12K1,6.97 µM (inactive)
same,GI50,P388,3.37 µM (inactive)
CS(=O)(=O)Nc1cccc(-c2cc(NCc3ccccc3)ncn2)c1,AC50,Cytochrome P450 2C19,39.8 µM (inconclusive)
same,AC50,Cytochrome P450 2D6,31.6 µM (inconclusive)
CCC1CCCCN1CCCNC(=O)C1CCN(c2nnc(-n3cccc3)s2)CC1 (centres undefined),EC50,cells [1],> 350 µM (not active)
same,EC50,cells [2],> 350 µM (not active)
Cn1c(=O)c(CCc2ccccc2)nc2cncnc21,AC50,Cytochrome P450 2C19,39.8 µM (inconclusive)
same,AC50,Cytochrome P450 3A4,15.8 µM (inconclusive)
same,AC50,Cytochrome P450 2C9,31.6 µM (inconclusive)
CCCCN(C)/N=N/c1[nH]cnc1C(N)=O,GI50,P388/ADR,> 100 µM (inactive)
same,GI50,SN12K1,81.7 µM (inactive)
same,GI50,P388,63.8 µM (inactive)
c1ccc(-c2csc3ncn4cnnc4c23)cc1,AC50,Cytochrome P450 2C19,11.2 µM (inconclusive)
same,AC50,Cytochrome P450 1A2,0.251 µM (inconclusive)
same,AC50,Cytochrome P450 2C9,20 µM (inconclusive)
COc1cc2c(cc1OC)-c1c/c(=N/c3c(C)cc(C)cc3C)n(C)c(=O)n1CC2,AC50,Cytochrome P450 2C19,31.6 µM (inconclusive)
same,AC50,Cytochrome P450 2D6,31.6 µM (inconclusive)
Cc1ccc(-n2c(SCC(=O)N3CCOCC3)nnc2-c2cccnc2)cc1,AC50,Cytochrome P450 2C19,22.4 µM (inconclusive)
same,AC50,Cytochrome P450 1A2,10 µM (inconclusive)
same,AC50,Cytochrome P450 3A4,10 µM (inconclusive)
same,AC50,Cytochrome P450 2C9,17.8 µM (inconclusive)
CN1C(=O)C(=C(N)COc2ccccc2)C(=O)N(C)C1=O,AC50,Cytochrome P450 2C19,15.8 µM (inconclusive)
same,AC50,Cytochrome P450 2C9,14.1 µM (inconclusive)
Nc1ccc2[nH]ncc2c1,AC50,[3],324 µM (active)
same,EC50,Protein RecA,36.1 µM (active)
COc1ccc(C2COc3cc(OC(C)=O)c(OC(C)=O)cc3C2)cc1 (centres undefined),GI50,P388/ADR,2.87 µM (inactive)
same,GI50,SN12K1,13.9 µM (inactive)
same,GI50,P388,3.08 µM (inactive)
Cc1ccc(-c2csc3nc(SCC(=O)N(C)C)n(Cc4ccccc4)c(=O)c23)cc1,EC50,cells [1],> 350 µM (not active)
same,EC50,cells [2],> 350 µM (not active)
CCOC(=O)CN(CC)C(=O)NC12CC3CC(CC(C3)C1)C2,GI50,P388/ADR,120 µM (inactive)
same,GI50,SN12K1,188 µM (inactive)
same,GI50,P388,175 µM (inactive)
COc1cccc(C2=NOC(C(=O)NCc3ccccn3)C2)c1 (centres undefined),AC50,Cytochrome P450 2C19,25.1 µM (inconclusive)
same,AC50,Cytochrome P450 3A4,15.8 µM (inconclusive)
CCN(CC)C(=O)CCCOc1ccc(Cl)cc1Cl,CC50,[4],22.1 µM (active)
same,EC50,[5],137 µM (active)
COc1cccc2c1C(=O)c1c(O)c3c(c(O)c1C2=O)C[C@@](O)(C(=O)CN1CCOCC1)C[C@@H]3OC1CC(N)C(O)C(C)O1 (some centres undefined),GI50,P388/ADR,14.7 µM (inactive)
same,GI50,SN12K1,0.649 µM (active)
same,GI50,P388,0.361 µM (active)
C[C@@H]1CN([C@@H](C)CO)C(=O)c2c(c3ccccc3n2C)-c2ccccc2CO[C@H]1CN(C)C(=O)Nc1ccccc1C(F)(F)F,AC50,[6],4.33 µM (active)
Nc1ccc2cn[nH]c2c1,AC50,[3],4.45 µM (active)
same,EC50,Protein RecA,9.02 µM (active)
CCc1ccc(-c2ccc(C(=O)C(F)(F)F)[nH]2)cc1,EC50,[7],0.19 µM (active)
same,AC50,Cytochrome P450 2C19,5.01 µM (inconclusive)
Cc1ccc(Oc2nc(-c3ccccc3)ncc2S(C)(=O)=O)cc1,AC50,Cytochrome P450 2C19,3.16 µM (inconclusive)
same,AC50,Cytochrome P450 3A4,14.1 µM (inconclusive)
CO[C@@H]1CN(C)C(=O)c2ccc(NC(=O)c3cc(C)on3)cc2OC[C@@H](C)N(S(=O)(=O)c2cccc(C)c2)C[C@H]1C,AC50,[6],4.07 µM (active)
CCOc1cc(/C=N/NC(=O)c2cccnc2)ccc1OCc1ccc(C(=O)OC)o1,EC50,cells [1],> 350 µM (not active)
same,EC50,cells [2],> 350 µM (not active)
NCCSCCc1ccccc1,AC50,Cytochrome P450 2C19,3.16 µM (inconclusive)
same,AC50,Cytochrome P450 2D6,3.16 µM (inconclusive)
O=c1ccn([C@@H]2C=C(CO)[C@@H](O)[C@H]2O)c(=O)[nH]1,GI50,SN12K1,> 625 µM (inactive)
same,GI50,P388,> 625 µM (inactive)
COc1ccc(C(=O)Nc2ccc(C(=O)NCCc3ccc(OC)c(OC)c3)cc2)cc1,EC50,cells [1],> 350 µM (not active)
same,EC50,cells [2],> 350 µM (not active)
